Laboratory results from patent US20120232062A1, “AZAINDAZOLES TO TREAT FLAVIVIRIDAE VIRUS INFECTION” (EIGER BIOPHARMACEUTICALS, INC., priority 2009, published 2012).

Experiments:
[1] = Liver microsome stability, rat; format: in vitro ADME, Sprague Dawley rat
From the text: Metabolic stability assays are designed to measure the stability of a test compound in a variety of assay matrices from human and animal species. From a metabolism perspective, a drug would be relatively stable, have a small first-pass effect, and maintain an effective concentration in blood for a reasonable period of time. A microsomal preparation from the liver contains all CYP isozymes and other membrane-bound drug metabolizing enzymes which are responsible for the metabolism for the majority of drugs in humans. Metabolic stability in liver microsomes can determine half-life (T1/2) and intrinsic clearance (Clint). The determination of Clint may be useful to determine whether metabolism is the major elimination pathway when it is compared to total body clearance in vivo. For high metabolic stability in liver microsomes: […] Human, Sprague Dawley rat, and CD-1 mouse liver microsome samples were purchased from BD Gentest. An in vitro metabolic stability assay suitable for use in predicting first pass metabolism of the compounds useful in the methods of the invention is described in this example. […] 6 mM NADPH in 0.1 M K-phosphate buffer is prepared by dissolving 25.1 mg of NADPH tetrasodium salt in 5 mL of K-phosphate buffer. […] The plate is pre-incubated at 37° C. for 10 minutes. 15 μL of NADPH stock solution (6 mM) is added to the wells designated for Time 60 and timed. At 30 min, 15 min, and 5 min, 15 μL of NADPH stock solution (6 mM) is added to the wells. At the end of incubation, 135 μL of ACN containing IS is added to all the wells (60 min, 30 min, 15 min, 5 min and 0 min). Then 15 μL of NADPH stock solution (6 mM) is added to the wells designated as Time 0.

[2] = Caco-2 permeability testing; format: in vitro ADME, human; conditions: human; for efflux ratio at 90 min, 10 µM: pH 7.4, Caco-2, Papp (B-A)/Papp (A-B), read-out: Efflux/Permeability ratio (desired <3); for Papp A→B at 90 min, 10 µM: Caco-2, pH 7.4, Caco-2, A-B, read-out: Permeability (second figure of Efflux/permeability), Papp (A-B); for Papp B→A at 90 min, 10 µM: Caco-2, pH 7.4, Caco-2, B-A, read-out: Efflux (first figure of Efflux/permeability), Papp (B-A)
From the text: Intestinal epithelium permeability is a critical characteristic that determines the rate and extent of human absorption and affects bioavailability of a drug candidate. Poor intestinal permeability leads to limited absorption. Generally, higher absorption is preferred. The Caco-2 cell line is a human colon adeno-carcinoma cell line that resembles the epithelial lining of the human small intestine. Several transport proteins that are expressed in human intestinal epithelium are also expressed in the Caco-2 cell model. Some transporter proteins are efflux systems which mediate the secretion of compounds from inside the cell back to the apical lumen (representative of the intestinal lumen), limiting overall absorption. In a permeability assay, the apparent permeability coefficient is measured between the apical to basolateral sides of a cell monolayer, Papp (A-B), and the basolateral to the apical side, Papp (B-A). Papp (A-B)<2×10^−6 cm/s is predictive of low permeability to the basolateral side, 2×10^−6 cm/s<Papp (A-B)<20×10^−6 cm/s is predictive of medium permeability, and Papp (A-B)>20×10^−6 cm/s is predictive of high permeability. In the B-A permeability assay, Papp (B-A) is measured and compounds evaluated for efflux potential. Together, these assay results are reported as a ratio of Papp (B-A) to Papp (A-B). Papp (B-A)/Papp (A-B)>3 are likely to be transported by one of the efflux systems, and have poor absorption. Papp (B-A)/Papp (A-B)<3 are likely to show reasonable intestinal absorption. An in vitro drug absorption assay suitable for use in predicting intestinal absorption of the compounds useful in the methods of the invention is described in this example. The embodiments of this assay described in this example were developed by Shanghai ChemPartner Co., Ltd., a corporation of China with its principal office located at 720 Cailun Road, Building No. 3, Shanghai 201203, China.
Caco-2 (ATCC, catalog No. HTB-37™) cells are cultured in growth medium (MEM+10% FBS+1% NEAA). The growth medium is prepared by adding 50 mL FBS and 5 mL NEAA to 445 mL of MEM or by adjusting the final volume according to actual needs. Trypsin-EDTA (Invitrogen, Cat #25200-072) is also used.
Hanks Balanced Salt Solution (HBSS, Invitrogen, Cat #14025-092) with 25 mM HEPES, pH 7.4, HBSS buffer with 0.2% DMSO (50 μL DMSO into 25 ml HBSS buffer), and HBSS buffer with 0.4% DMSO (100 μL DMSO into 25 ml HBSS buffer) are used.
10 mM stock solutions of a compound is prepared in DMSO and Lucifer Yellow in assay buffer using the formula (Actual Weight/Molecular Weight)/mL solvent=10 mM. Erythromycin, Metoprolol, and Atenolol are used as reference compounds. Donor solutions (10 μM for compounds and 5 μM for Lucifer Yellow) are prepared. For A-B, 4 μL of 10 mM compound stock solution and 2 μL of 10 mM Lucifer Yellow stock solution are loaded into 4 mL of HBSS buffer, and centrifuged (5 min, 4000 rpm) to precipitate undissolved particles. Supernatants are collected for compound dosing. For B-A, 4 μL (compounds) of 10 mM compound stock solution is added to 4 mL HBSS buffer with 0.2% DMSO, and centrifuged (5 min, 4000 rpm) to precipitate undissolved particles. Supernatants are collected for compound dosing.
Receiver solutions are prepared. For A-B, the solution is HBSS buffer with 0.4% DMSO. For B-A, 2 μL of 10 mM Lucifer Yellow stock solution is added to 4 mL of HBSS buffer with 0.2% DMSO. Compound solutions are prepared for standard curve (3 μM/1 μM/0.2 μM/0.04 μM/0.01 μM/0.005 μM):
1× solution: 3 μL of 20× solution (0.1-60 μM)+57 μL 0.4% DMSO HBSS+60 μL acetonitrile (ACN) with internal standard (IS, 200 ng/mL Osalmid). The assay was performed as described below
Stock cultures are maintained in MEM+10% FBS+1% NEAA, grown in 75 cm^2 tissue culture treated flasks and split (passed) 2 times weekly to maintain desired confluence. For maintenance passage, trypsinized cells are routinely distributed into new flasks at a standard passage ratio of 1:4. […]

SMILES	rat liver microsome (RLM), % parent remaining ([1]; after 15 min)	rat liver microsome (RLM), % parent remaining ([1]; after 30 min)	rat liver microsome (RLM), % parent remaining ([1]; after 60 min)	efflux ratio at 90 min, 10 µM [2]	Papp A→B at 90 min, 10 µM [2]	Papp B→A at 90 min, 10 µM [2]
Cn1nc(C(=O)NC2CCN(CCN3CCCCC3)CC2)c2ccc(N3CCCCCC3)nc21 [EBP1047]	44 % parent remaining	18 % parent remaining	10 % parent remaining			
CCN1CCC(NC(=O)c2nn(C)c3nc(N4CCCCCC4)ccc23)CC1 [EBP1595]	67 % parent remaining	46 % parent remaining	8 % parent remaining	0.9		
Cn1nc(C(=O)NC2CCN(CCN3CCCC3)CC2)c2ccc(N3CCCCCC3)nc21 [EBP1597]	57 % parent remaining	24 % parent remaining	15 % parent remaining	0.8		
CC(C)N1CCC(NC(=O)c2nn(C)c3nc(N4CCCCCC4)ccc23)CC1 [EBP1604]	58 % parent remaining	41 % parent remaining	14 % parent remaining	0.8	12 ×10⁻⁶ cm/s	9 ×10⁻⁶ cm/s
Cn1nc(C(=O)NC2CCNCC2)c2ccc(N3CCCCCC3)nc21.O=C(O)C(F)(F)F.O=C(O)C(F)(F)F [compound 697]	69 % parent remaining	42 % parent remaining	13 % parent remaining		5.5 ×10⁻⁶ cm/s	48 ×10⁻⁶ cm/s
CCC(CC)Oc1ccc2c(C(=O)NC3CCNCC3)n[nH]c2n1 [compound 726]	83 % parent remaining	69 % parent remaining	53 % parent remaining		3.5 ×10⁻⁶ cm/s	41 ×10⁻⁶ cm/s
Clc1ccc(Cn2nc(COCCCN3CCCCC3)c3ccc(N4CCCCCC4)nc32)cc1 [compound 749]					0.44 ×10⁻⁶ cm/s	0.52 ×10⁻⁶ cm/s
CCC(CC)Oc1ccc2c(COCC3CCCNC3)nn(Cc3ccc(Cl)cc3)c2n1.O=C(O)C(F)(F)F (centres unmarked) [compound 755]					0.4 ×10⁻⁶ cm/s	0.2 ×10⁻⁶ cm/s
O=C(NC1CCNCC1)c1nn(C(=O)C2CCCCC2)c2nc(N3CCCCCC3)ccc12.O=C(O)C(F)(F)F.O=C(O)C(F)(F)F.O=C(O)C(F)(F)F [compound 989]					5 ×10⁻⁶ cm/s	3 ×10⁻⁶ cm/s
Cn1nc(C(=O)NC2CCN(CCN3CCCCC3)CC2)c2ccc(N3CCCCCC3)nc21 [compound 1047]	44 % parent remaining	18 % parent remaining	10 % parent remaining		10.5 ×10⁻⁶ cm/s	7.6 ×10⁻⁶ cm/s
Cn1nc(C(=O)NC2CCN(CC3CCCCC3)CC2)c2ccc(N3CCCCCCC3)nc21 [compound 1062]					1.7 ×10⁻⁶ cm/s	0.6 ×10⁻⁶ cm/s
Cn1nc(C(=O)NC2CCN(CC(F)F)CC2)c2ccc(N3CCCCCC3)nc21 [compound 1110]	10 % parent remaining	0.5 % parent remaining	0.5 % parent remaining		13.8 ×10⁻⁶ cm/s	10.1 ×10⁻⁶ cm/s
Cn1nc(CCCN2CCCC2)c2ccc(N3CCCCCCC3)nc21 [compound 1171]	1.2 % parent remaining	0.5 % parent remaining	0.3 % parent remaining		17 ×10⁻⁶ cm/s	11 ×10⁻⁶ cm/s
Cn1nc(CCCN2CCCCC2CO)c2ccc(N3CCCCCCC3)nc21 (centres unmarked) [compound 1456]	3.9 % parent remaining	0.4 % parent remaining	0.2 % parent remaining		15 ×10⁻⁶ cm/s	15 ×10⁻⁶ cm/s
CCN1CCC(NC(=O)c2nn(C)c3nc(N4CCCCCC4)ccc23)CC1 [compound 1595]	67 % parent remaining	46 % parent remaining	8 % parent remaining		15.3 ×10⁻⁶ cm/s	14.4 ×10⁻⁶ cm/s
Cn1nc(C(=O)NC2CCN(CCN3CCCC3)CC2)c2ccc(N3CCCCCC3)nc21 [compound 1597]	57 % parent remaining	25 % parent remaining	14 % parent remaining		9.2 ×10⁻⁶ cm/s	6.5 ×10⁻⁶ cm/s
